This note sets out measurements from patent US8299056B2 (Signal Pharmaceuticals, LLC, priority 2008, dated 2012).

pIC50: −log10 of the molar value.

The target of the first test is T1, Syk (Homo sapiens, UniProt P43405).
T1 construct: purchased Carna Biosciences
Kind of test: Syk HTRF assay. The class given is biochemical. As to conditions: IC50 activity level, read-out: Activity Level. An outline of the steps:
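Read-out is the 665 nm/615 nm time-resolved fluorescence ratio after EDTA stop and Eu-anti-phosphotyrosine plus streptavidin-DyLight 647 detection. Reaction ran 1 h at room temperature with start mix of 87.5 μM ATP and 80 nM substrate peptide in pH 7.6 HEPES/MgCl2 buffer.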
Consider `O[C@@H]1CC[C@H](Nc2cccc3nc(Nc4ccc(C(F)(F)F)cc4)nn23)C1` [Example 421, (1R,3S)-3-(2-(4-(trifluoromethyl)phenylamino)-[1,2,4]triazolo[1,5-a]pyridin-5-ylamino)cyclopentanol], for which the pIC50 was 6.30 to 6.60.

For the compound `NC(=O)c1ccc(Nc2nc3cccc(NC4CCC(N)CC4)n3n2)cc1` (stereo in doubt) [Example 492, trans-4-(5-(4-aminocyclohexylamino)-[1,2,4]triazolo[1,5-a]pyridin-2-ylamino)benzamide], the pIC50 is 6.60 to 11.30.

For the compound `C[C@H](Cc1cccc2nc(Nc3ccccc3)nn12)C(N)=O` [Example 460, (R)-2-methyl-3-(2-(phenylamino)-[1,2,4]triazolo[1,5-a]pyridin-5-yl)propanamide], the pIC50 was 5.00 to 6.00.

Still in this test, the particulars now being: activity levels A-D, read-out: Activity Level (IC50 in the Syk HTRF assay).
With `O=C1CN(Cc2cccc3nc(Nc4ccc(C(F)(F)F)cc4)nn23)CC(=O)N1` [Example 264, 4-((2-(4-(trifluoromethyl)phenylamino)-[1,2,4]triazolo[1,5-a]pyridin-5-yl)methyl)piperazine-2,6-dione], the pIC50 is 6.60 to 11.30.

As to `Cc1cc(Nc2nc3cccc(N[C@H]4CC[C@@H](O)CC4)n3n2)ccn1` [Example 367, cis-4-(2-(2-methylpyridin-4-ylamino)-[1,2,4]triazolo[1,5-a]pyridin-5-ylamino)cyclohexanol], the pIC50 was 6.00 to 6.30.

With `CC(C)n1ncc2ccc(Nc3nc4cccc(N[C@H]5CC[C@@H](O)CC5)n4n3)cc21` [Example 243, cis-4-(2-(1-isopropyl-1H-indazol-6-ylamino)-[1,2,4]triazolo[1,5-a]pyridin-5-ylamino)cyclohexanol], the pIC50 was 6.60 to 11.30.

Consider `O[C@@H]1CCCN(c2cccc3nc(Nc4ccc(C(F)(F)F)cc4)nn23)C1` [Example 309, (R)-1-(2-(4-(trifluoromethyl)phenylamino)-[1,2,4]triazolo[1.5-a]pyridin-5-yl)piperidin-3-ol], for which the pIC50 is 6.00 to 6.30.

`CC1CNC(=O)CN1Cc1cccc2nc(Nc3ccc(C(F)(F)F)cc3)nn12` (centres unmarked) [Example 258, 5-methyl-4-((2-(4-(trifluoromethyl)phenylamino)-[1,2,4]triazolo[1,5-a]pyridin-5-yl)methyl)piperazin-2-one]: the pIC50 is 6.00 to 6.30.

Take `Oc1cccc(Nc2nc3cccc(N[C@H]4CC[C@@H](O)CC4)n3n2)n1` [Example 305, cis-6-(5-(4-hydroxycyclohexylamino)-[1,2,4]triazolo[1,5-a]pyridin-2-ylamino)pyridin-2-ol]: the pIC50 was 5.00 to 6.00.

The same test, now with this note: read-out: Activity Level (Syk HTRF assay IC50).
`CC1(C)C(=O)Nc2cc(Nc3nc4cccc(Cc5cc[nH]c(=O)c5)n4n3)ccc21` [Example 156, 3,3-dimethyl-6-(5-((2-oxo-1,2-dihydropyridin-4-yl)methyl)-[1,2,4]triazolo[1,5-a]pyridin-2-ylamino)indolin-2-one]: the pIC50 was 6.60 to 11.30.

Regarding `CCn1nc(C)c2ccc(Nc3nc4cccc(N[C@H]5CC[C@@H](O)CC5)n4n3)cc21` [Example 197, cis-4-(2-(1-ethyl-3-methyl-1H-indazol-6-ylamino)-[1,2,4]triazolo[1,5-a]pyridin-5-ylamino)cyclohexanol], the pIC50 was 6.60 to 11.30.

For `Oc1cccc(-c2cccc3nc(Nc4ccccc4)nn23)c1` [Example 92], the pIC50 is 6.60 to 11.30.

For `Cn1ncc2ccc(Nc3nc4cccc(-c5cccc(O)c5)n4n3)cc21` [compound 19], the pIC50 is 6.60 to 11.30.

`Nc1noc2ccc(Nc3nc4cccc(-c5ccccc5)n4n3)cc12` [compound 42]: the pIC50 was 6.60 to 11.30.

Turning to `O=c1cc(C(O)c2cccc3nc(Nc4ccc(C(F)(F)F)cc4)nn23)nc[nH]1` (centres unmarked) [Example 193, 6-(hydroxy(2-(4-(trifluoromethyl)phenylamino)-[1,2,4]triazolo[1,5-a]pyridin-5-yl)methyl)pyrimidin-4(3H)-one], the pIC50 is 6.60 to 11.30.

`COC[C@]1(O)CC[C@@H](Cc2cccc3nc(Nc4ccc(C(F)(F)F)cc4)nn23)CC1` [Example 187, cis-1-(methoxymethyl)-4-((2-(4-(trifluoromethyl)phenylamino)-[1,2,4]triazolo[1,5-a]pyridin-5-yl)methyl)cyclohexanol]: the pIC50 is 6.00 to 6.30.

For `Cn1cnc2cc(Nc3nc4cccc(-c5ccccc5)n4n3)ccc21` [compound 55, N-(1-methyl-1H-benzo[d]imidazol-5-yl)-5-phenyl-[1,2,4]triazolo[1,5-a]pyridin-2-amine], the pIC50 is 6.30 to 6.60.
